Assay results published in US12378328B2, “Biohybrid peptidoglycan oligomers” (Nanyang Technological University, priority 2019, dated 2025).

Columns and labels:
E. faecalis OG1RF = assay: TIRF microscopy of wild type and L-form bacteria; type: cell-based; conditions: 30 min, 37° C.; for fluorescence localisation, L-form cells: L-form E. faecalis OG1RF
Excerpt: L-form bacteria and fluorescence microscopy were deployed to further study the interaction between PGOs and bacterial cell walls. L-form bacteria are deficient in cell wall components (referring to substrates forming the cell wall) or cell wall fragments (referring to the residues formed after cell autolysis) on their surface. BOCILLIN™ FL (Boc-FL), a fluorescent penicillin-derivative, was used to compare the localisation of penicillin-derivatives to that of PGOs.
The localisation of PGOs-rhodamine was also compared to the membrane dye Polymyxin B-BODIPY FL (Polymyxin B). […] In comparison, the PGOs localised in discrete punctae on the L-form cell surfaces. […] Thus, it is concluded that PGOs' localisation patterns within bacterial cell walls strongly resemble penicillin-derivatives (FIG. 9, top row).
L-forms were generated using DM3 agar by modified methods from reported protocol (Molec. Gen. Genet., 1979, 168, 111-115). DM3 medium consists of 1.2 wt % agar, 0.5 wt % Tryptone, 0.5 wt % yeast extract, 1 M Succinate (pH 7.3), 3.5 wt % K2HPO4 and 1.5 wt % KH2PO4, 20 wt % Glucose, 1 M MgCl2 and 2 wt % BSA, with the balance being water. Parental strain E. faecalis OG1RF was grown overnight at 37° C. in DM3 broth. 100 μL of an overnight culture was directly plated on DM3 agar plates supplemented with 200 μg/ml penicillin G. The plates were incubated at 37° C. Small fried egg-like shaped colonies appeared after 5 days. The colonies were restreaked on DM3 agar with 200 μg/ml penicillin G for a few times to get pure colonies, and serial passaging (ten times) of pure colonies in DM3 agar with decreasing penicillin G concentrations to generate stable L-forms. The stable L-forms were stored at −80° C. in 20% glycerol.
Fluorescence microscopy was performed on Nikon TIRF microscope (Nikon instruments, NY, USA). BODIPY FL and sulforhodamine B were excited at 488 and 560 nm and emitted at 512 and 580 nm respectively. […]

[1] = tested on: S. aureus and E. faecalis; assay: STED super-resolution microscopy of cell walls that incorporated PGOs; type: cell-based
Protocol: To prepare samples for super resolution STED microscopy, overnight broth cultures were grown in 5 ml of fresh culture broth (1:100 dilution) to prepare logarithmic phase cultures after incubation at 37° C. for 4 hours in a shaking incubator (225 rpm). Then, bacteria cells were pelleted by centrifugation at 1,500×g for 5 min, suspended in culture media (MHB and BHI) at a concentration of 10^8 CFU ml^−1 and incubated for 1 h in the dark in the presence of 100 μg/ml of rhodamine-labeled derivative of 1 at 37° C. with agitation (225 rpm). […] Cells were fixed for 1 h at 37° C. in a shaking incubator (225 rpm), washed three times in PBS and applied to a sterile glass bottom collagen coated dish (MatTek Corporation).
STED super resolution microscopy was performed on a Leica TCS SP8 STED-3× microscope (Leica Microsystems, Wetzlar, Germany) at SingHealth Advanced Biomaging Core. 479 nm and 556 nm lasers were used for fluorescence excitation, while 660 nm STED laser was used for depletion. In order to achieve maximum lateral resolution, all images were acquired in 2D STED mode. Further image processing required deconvolution, which was done using Huygens Professional software (Scientific Volume Imaging, Hilversum, Netherlands).
To characterize the bacterial PG cell walls that incorporated PGOs, the microscope images obtained from Example 5 were further analysed.

Row | Molecule | fluorescence localisation, L-form cells (E. faecalis OG1RF) | fluorescence localisation, wild type cells (E. faecalis OG1RF; wild type E. faecalis OG1RF) | localisation of signal on the bacterial cell [1]
1 | Cc1cc(C)n2c1C=C1C=CC(CCC(=O)Nc3ccc(OCC(=O)N[C@@H]4C(=O)N5[C@@H]4SC(C)(C)[C@@H]5C(=O)[O-])cc3)=[N+]1[B-]2(F)F.[Na+] [Boc-FL] | only a few distinct fluorescent punctae | intense fluorescence at the septum region and also the adjacent cell surface | 
2 | CCCCN(CCCC)c1ccc(/C=C/c2cc[n+](CCC[N+](C)(C)CCCN)cc2)cc1.Cl.[Cl-].[Cl-] [FM 1-43fx] |  |  | adsorbed directly onto the bacterial cell surface
3 | Polymyxin B | Strong uniform membranous staining |  | 
